Assay results as given in patent US7792665B2, “Method for designing a compound based on the three dimensional structure of phosphoinositide dependent protein kinase 1 (PDK1)” (Medical Research Council, priority 2002, dated 2010).
Substitutions are numbered along the chain they refer to. Entries after “also recorded” stand apart in the source; their conditions may differ. Where a SMILES comes first, the peptide text is derived from it. [ ]: non-standard residue; d: D form. pT = C[C@@H](OP(=O)(O)O)[C@H](N)C(=O)O

How the values were obtained:
PDK1[Q150A] = target: T1, PDK1[Q150A] (Homo sapiens, UniProt O15530, Q150A); assay: Surface plasmon resonance (BiaCore) binding, PDK1[Q150A]; set-up: made in house; host or cells: human embryonic kidney 293 cells (pEBG2T vector)
T1 sequence (O15530 1-556 Q150A): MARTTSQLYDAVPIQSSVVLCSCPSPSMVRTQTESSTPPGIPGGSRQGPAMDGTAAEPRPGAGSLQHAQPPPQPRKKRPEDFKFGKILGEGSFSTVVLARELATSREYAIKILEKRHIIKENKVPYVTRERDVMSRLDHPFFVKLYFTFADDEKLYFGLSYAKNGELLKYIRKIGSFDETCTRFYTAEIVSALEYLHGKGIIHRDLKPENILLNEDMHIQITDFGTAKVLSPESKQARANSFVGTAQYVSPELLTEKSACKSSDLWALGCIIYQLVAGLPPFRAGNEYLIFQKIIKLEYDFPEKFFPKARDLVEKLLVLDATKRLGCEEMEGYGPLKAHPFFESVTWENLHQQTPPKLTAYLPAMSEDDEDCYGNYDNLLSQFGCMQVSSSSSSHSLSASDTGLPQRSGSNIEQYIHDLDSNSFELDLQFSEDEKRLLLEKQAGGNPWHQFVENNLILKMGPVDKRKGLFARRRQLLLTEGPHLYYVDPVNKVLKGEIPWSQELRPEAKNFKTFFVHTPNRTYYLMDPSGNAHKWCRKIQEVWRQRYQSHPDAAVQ
Procedure: (§1) Binding and activation of wild type and mutant forms of PDK1 to a phosphopeptide derived from the hydrophobic motif of S6K1. The binding of the wild type (wt) PDK1 and indicated mutants to a phosphopeptide comprising the hydrophobic motif of S6K1 (S6K-pHM: […]*YVAPSV, where T* indicates phospho-threonine, SEQ ID NO:104) was analysed by surface plasmon resonance as described in the Materials and Methods.
(§2) A. The sensor chip SA was coated with 12RUs of the biotinylated S6K-pHM peptide and the binding was analysed following injection of 270 nM wild type PDK1, PDK1 [T148A] and PDK1 [K76A]. […] (data not shown).
Binding was analysed in a BiaCore 3000 system (BiaCore AB, Stevenage, UK). Biotinylated S6K-pHM (Biotin-C12-[…](P)YVAPSV) (SEQ ID NO:104) or the non-phosphorylated form of this peptide S6K-HM was bound to an streptavidin-coated Sensor chip (SA) (12 response units, RU). 30 μl of wild type or the indicated mutant GST-PDK1 were injected at a flow rate of 30 μl/min, in buffer HBS-P (10 mM HEPES pH 7.4, 0.15M NaCl, 0.005% (by vol) polysorbate-20) supplemented with 1 mM DTT. Specific interactions between 56K-pHM and PDK1 proteins were obtained between the concentration range of 2-2150 nM PDK1. Steady state binding was determined at each concentration. Dissociation of PDK1 from the phospho-peptide was monitored over a 1 min period. […]

PDK1[K76A] [1] = target: T2, PDK1[K76A] (Homo sapiens, UniProt O15530, K76A); assay: Surface plasmon resonance (BiaCore) binding, PDK1[K76A]; conditions: relative to wild type PDK1
T2 construct: made in house; host or cells: human embryonic kidney 293 cells (pEBG2T vector)
T2 sequence (O15530 1-556 K76A): T1 sequence (O15530 1-556 Q150A) with K76A, A150Q
Procedure: as §1, §2
B. As in A. except that binding was analysed over a range of PDK1 concentrations (2-2150 nM). The response level at the steady state binding is plotted versus the log of the PDK1 concentration. The estimated Kd was obtained by fitting the data to a sigmoid curve using Kaleidagraph software.
Binding was analysed in a BiaCore 3000 system (BiaCore AB, Stevenage, UK). Biotinylated S6K-pHM (Biotin-C12-[…](P)YVAPSV) (SEQ ID NO:104) or the non-phosphorylated form of this peptide S6K-HM was bound to an streptavidin-coated Sensor chip (SA) (12 response units, RU). […] Steady state binding was determined at each concentration. Dissociation of PDK1 from the phospho-peptide was monitored over a 1 min period. […]

PDK1[K76A] [2] = target: T2, PDK1[K76A]; assay: PDK1 catalytic activity towards T308tide, activation by peptides, PDK1[K76A]; format: biochemical; conditions: T308tide substrate
Procedure: (§3) C. Activation of the indicated forms of PDK1 by 56K-pHM and S6K-HM. PDK1 activity was measured using the peptide substrate (T308tide) in the presence of the indicated concentrations of 56K-pHM (closed circles) and S6K-HM (open circles) as described in the methods. Assays were performed in triplicate and similar results obtained in 2 separate experiments. The results are the average—SD for a single experiment.
(§4) The ability of wild type and mutant PDK1 to phosphorylate the synthetic peptide T308tide ([…] ([Biondi et al., 2000]) (SEQ ID NO:108) was carried out in 30 μl assays containing 100 ng of wild type or mutant PDK1, 50 mM Tris/HCl pH 7.5, 0.1% 13-mercaptoethanol, 10 mM MgCl2, 100 μM [32γ P]ATP (200 cpm/pmol), 0.5 μM microcystin-LR, 1 mM T308tide in the presence or absence of the indicated concentrations of the 56K-pHM peptide ([…](P)YVAPSV) (SEQ ID NO:104) or 56K-HM. peptide ([…]) (SEQ ID NO:105). After incubation for 10 min at 30° C., 25 μl of the resultant mixture was spotted into P81 phosphocellulose paper (2×2 cm) and the papers washed and analysed as described previously for assays of MAP kinase. Control assays were carried out in parallel in which either PDK1, or peptide substrate were omitted; these values were always less than 5% of the activity measured in the presence of these reagents. […]

[3] = target: T3, mutant of PDK1 in which both Lys76 and Arg131 were changed to Ala (Homo sapiens, UniProt O15530, K76A/R131A); assay: PDK1 catalytic activity towards T308tide, activation by peptides, Lys76 and Arg131 to Ala double mutant; format: biochemical; conditions: peptide 0.3 and 1 mM, compared with PDK1[R131A]
T3 construct: GST (N); made in house; host or cells: human embryonic kidney 293 cells (pEBG2T vector)
Procedure: as §3, §4

T3 sequence (O15530 whole entry K76A/R131A): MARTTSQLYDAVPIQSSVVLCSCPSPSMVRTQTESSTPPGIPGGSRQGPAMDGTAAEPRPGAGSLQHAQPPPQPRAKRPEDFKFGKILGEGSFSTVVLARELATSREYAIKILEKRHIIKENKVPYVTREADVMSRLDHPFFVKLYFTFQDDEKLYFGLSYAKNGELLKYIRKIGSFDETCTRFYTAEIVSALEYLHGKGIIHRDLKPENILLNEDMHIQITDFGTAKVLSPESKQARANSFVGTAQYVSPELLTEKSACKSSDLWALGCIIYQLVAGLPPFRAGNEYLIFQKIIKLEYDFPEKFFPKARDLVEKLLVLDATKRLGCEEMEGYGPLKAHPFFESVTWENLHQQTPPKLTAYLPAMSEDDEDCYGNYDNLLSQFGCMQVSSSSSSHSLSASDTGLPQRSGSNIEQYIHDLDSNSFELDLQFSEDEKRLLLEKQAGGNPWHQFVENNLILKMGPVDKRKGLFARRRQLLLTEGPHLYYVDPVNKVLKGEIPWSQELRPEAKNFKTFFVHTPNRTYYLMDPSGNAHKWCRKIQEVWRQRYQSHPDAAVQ

CC(C)C[C@H](NC(=O)[C@H](Cc1ccccc1)NC(=O)[C@@H](NC(=O)[C@H](CCC(N)=O)NC(=O)[C@H](CC(N)=O)NC(=O)[C@H](C)NC(=O)[C@H](CO)NC(=O)[C@H](CCC(=O)O)NC(=O)[C@@H](N)CO)C(C)C)C(=O)NCC(=O)N[C@@H](Cc1ccccc1)C(=O)N[C@H](C(=O)N[C@@H](Cc1ccc(O)cc1)C(=O)N[C@H](C(=O)N[C@@H](C)C(=O)N1CCC[C@H]1C(=O)N[C@@H](CO)C(=O)N[C@H](C(=O)O)C(C)C)C(C)C)[C@@H](C)OP(=O)(O)O [S6K-pHM] (H-SESANQVFLGF[pT]YVAPSV-OH; N-terminus and C-terminus assumed)
binding of PDK1[Q150A] to peptide (PDK1[Q150A]): No detectable binding; also recorded: did not detectably interact | lower affinity of PDK1[K76A] than wild type PDK1 (PDK1[K76A] [1]): 3 fold | higher concentration required to half maximally activate PDK1[K76A] than wild type (PDK1[K76A] [2]): approximately 3 fold | activation of Lys76/Arg131 to Ala double mutant [3]: activated even less significantly
